Laboratory results taken from US9447086B2, “6-amino acid heteroaryldihydropyrimidines for the treatment and prophylaxis of hepatitis B virus infection” (priority 2012, dated 2016).
In brackets after ≈: the same amount, converted by molar mass.

What was measured:
HBV [1] = assay: Anti-HBV activity in vitro in HepG2.2.15 cells (extracellular HBV DNA by qPCR); type: cell-based, Hepatitis B virus; details: Hepatitis B virus; HepG2.2.15 cells; in-house data; read-out: EC50
Summary of the method: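 Supernatant HBV DNA was measured by qPCR after viral DNA extraction. Samples came from 5-day cultures of HepG2.2.15 cells, an HBV-genome-transfected HepG2 line, exposed to half-log compound dilutions in medium containing 0.5% DMSO.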

HepDE19 cells = assay: Cytotoxicity (CC50) in HepDE19 cells, CCK-8 cell viability; type: cell-based
Summary of the method: (§1)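 HBV-transfected HepG2-derived HepDE19 cells grown in DMEM-F12 with 10% FBS and G418. Viability read five days after treatment by CCK-8, 2 h at 37 °C, absorbance at 450 and 630 nm.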

HBV [2] = assay: Selectivity index (CC50 value/EC50 value); type: cell-based, Hepatitis B virus
Summary of the method: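 Ratio of CC50 to EC50, measuring antiviral activity against HBV relative to cytotoxicity in vitro; higher values indicate greater separation between viral inhibition and cell death.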

[3] = Metabolic stability study in human microsome; type: in vitro ADME
Summary of the method: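 Depletion of 1 μM compound followed by LC-MS/MS over 0–30 min (0, 3, 6, 9, 15, 30 min) after methanol quench. Incubations at 37 °C, pH 7.4 phosphate buffer, 0.5 mg/mL microsomal protein, with NADPH (1 mM) or a regenerating system as cofactor; controls lacked cofactor.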

[4] = Lyophilisation solubility assay (Lysa); type: physicochemical; details: phosphate buffer, pH 6.5, aqueous buffer, thermodynamic from solid
Summary of the method: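 Solubility in μg/mL is read by UV or HPLC-UV on filtrate, neat and diluted 1/10. Before filtration, the residue from evaporated 10 mM DMSO stock was taken up in pH 6.5 0.05 M phosphate buffer, then stirred 1 h, shaken 2 h and stood overnight, in duplicate.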

[5] = Cytotoxicity (CC50) in HepDE19 cells, CCK-8 cell viability; type: cell-based; details: human, HepDE19 cells; read-out: CC50
Summary of the method: as §1

| SMILES | EC50 (HBV [1]) [nM] | CC50 (HepDE19 cells) [µM] | Selectivity index (CC50/EC50) (HBV [2]) | Human Hepatic Clearance [3] [mL/min/kg] | solubility thermodynamic [4] [µg/mL] | CC50 at 5 days [5] [µM] |
| --- | --- | --- | --- | --- | --- | --- |
| COC(=O)C1=C(CN2CCOC[C@H]2C(=O)O)NC(c2nc(C)cs2)=N[C@H]1c1ccc(F)cc1Cl [Example 17, (S)-4-[(R)-6-(2-Chloro-4-fluoro-phenyl)-5-methoxycarbonyl-2-(4-methyl-thiazol-2-yl)-3,6-dihydro-pyrimidin-4-ylmethyl]-morpholine-3-carboxylic acid] | 7 | > 100 | >14286 | 0.74 | > 673 |  |
| CCOC(=O)C1=C(CN2CCOC[C@H]2C(=O)O)NC(c2nccs2)=N[C@H]1c1ccc(F)cc1Cl [Example 31, (S)-4-[(R)-6-(2-Chloro-4-fluoro-phenyl)-5-ethoxycarbonyl-2-thiazol-2-yl-3,6-dihydro-pyrimidin-4-ylmethyl]-morpholine-3-carboxylic acid] | 2 | > 100 | >50000 | 4.68 | 630 (≈ 1240 µM) |  |
| COC(=O)C1=C(CN2CCOC[C@H]2C(=O)O)NC(c2nccs2)=N[C@H]1c1cccc(F)c1Cl [Example 47, (S)-4-[(R)-6-(2-Chloro-3-fluoro-phenyl)-5-methoxycarbonyl-2-thiazol-2-yl-3,6-dihydro-pyrimidin-4-ylmethyl]-morpholine-3-carboxylic acid] | 4.4 | > 100 | >2273 | 1.46 | > 660 |  |
| O=C(OCC(F)(F)F)C1=C(CN2CCOC[C@H]2C(=O)O)NC(c2nccs2)=N[C@H]1c1ccc(F)cc1Cl [Example 51, (S)-4-[(R)-6-(2-Chloro-4-fluoro-phenyl)-2-thiazol-2-yl-5-(2,2,2-trifluoro-ethoxycarbonyl)-3,6-dihydro-pyrimidin-4-ylmethyl]-morpholine-3-carboxylic acid] | 13 | 27 | 2117 | 0 | > 695 |  |
| CCOC(=O)C1=C(CN2CCOC[C@H]2C(=O)O)NC(c2nccs2)=N[C@H]1c1ccc(F)cc1 [Example 54, (S)-4-[(S)-5-Ethoxycarbonyl-6-(4-fluoro-phenyl)-2-thiazol-2-yl-3,6-dihydro-pyrimidin-4-ylmethyl]-morpholine-3-carboxylic acid] | 14 | 62 | 4293 | 0 | > 606 |  |
| CCOC(=O)C1=C(CN2CCOC[C@H]2C(=O)O)NC(c2nccs2)=N[C@H]1c1ccc(F)cc1F [Example 58, (S)-4-[(R)-6-(2,4-Difluoro-phenyl)-5-ethoxycarbonyl-2-thiazol-2-yl-3,6-dihydro-pyrimidin-4-ylmethyl]-morpholine-3-carboxylic acid] | 14 | > 100 | >7353 | 1.26 | > 638 |  |
| COC(=O)C1=C(CN2CC(F)(F)CC[C@H]2C(=O)O)NC(c2nccs2)=N[C@H]1c1cccc(F)c1Cl [Example 109, (R)-6-((S)-2-Carboxy-5,5-difluoro-piperidin-1-ylmethyl)-4-(2-chloro-3-fluoro-phenyl)-2-thiazol-2-yl-1,4-dihydro-pyrimidine-5-carboxylic acid methyl ester] | 4.4 |  | 12500 | 1.25 | > 657 | 55 |
| CCOC(=O)C1=C(CN2CC(F)(F)CC[C@H]2C(=O)O)NC(c2nccs2)=N[C@H]1c1ccccc1Cl [Example 111, (R)-6-((S)-2-Carboxy-5,5-difluoro-piperidin-1-ylmethyl)-4-(2-chloro-phenyl)-2-thiazol-2-yl-1,4-dihydro-pyrimidine-5-carboxylic acid ethyl ester] | 5.8 |  | 17241 | 5.31 | > 620 | > 100 |
| COC(=O)C1=C(CN2CCO[C@H](C)[C@H]2C(=O)O)NC(c2nccs2)=N[C@H]1c1ccc(F)c(F)c1 [Example 113, (2R,3S)-4-[(S)-6-(3,4-Difluoro-phenyl)-5-methoxycarbonyl-2-thiazol-2-yl-3,6-dihydro-pyrimidin-4-ylmethyl]-2-methyl-morpholine-3-carboxylic acid] | 16 |  | >6061 | 0 | > 615 | > 100 |
| COC(=O)C1=C(CN2CCO[C@H](C)[C@H]2C(=O)O)NC(c2nccs2)=N[C@H]1c1ccc(F)c(F)c1F [Example 114, (2R,3S)-4-[(R)-5-Methoxycarbonyl-2-thiazol-2-yl-6-(2,3,4-trifluoro-phenyl)-3,6-dihydro-pyrimidin-4-ylmethyl]-2-methyl-morpholine-3-carboxylic acid] | 9.3 |  | >10753 | 0 | > 617 | > 100 |
| COC(=O)C1=C(CN2CCO[C@H](C)[C@H]2C(=O)O)NC(c2nccs2)=N[C@H]1c1cccc(F)c1Cl [Example 115, (2R,3S)-4-[(R)-6-(2-Chloro-3-fluoro-phenyl)-5-methoxycarbonyl-2-thiazol-2-yl-3,6-dihydro-pyrimidin-4-ylmethyl]-2-methyl-morpholine-3-carboxylic acid] | 2.3 |  | >43478 | 1.55 | > 642 | > 100 |
| CCOC(=O)C1=C(CN2CCO[C@H](C)[C@H]2C(=O)O)NC(c2nccs2)=N[C@H]1c1ccccc1Cl [Example 117, (2R,3S)-4-[(R)-6-(2-Chloro-phenyl)-5-ethoxycarbonyl-2-thiazol-2-yl-3,6-dihydro-pyrimidin-4-ylmethyl]-2-methyl-morpholine-3-carboxylic acid] | 1.5 |  | 66667 | 0 | > 628 | > 100 |
| CCOC(=O)C1=C(CN2CCO[C@H](C)[C@H]2C(=O)O)NC(c2nccs2)=N[C@H]1c1cccc(F)c1Cl [Example 118, (2R,3S)-4-[(R)-6-(2-Chloro-3-fluoro-phenyl)-5-ethoxycarbonyl-2-thiazol-2-yl-3,6-dihydro-pyrimidin-4-ylmethyl]-2-methyl-morpholine-3-carboxylic acid] | 0.5 |  | >200000 | 0.1 | > 630 | > 100 |
| COC(=O)C1=C(CN2CCO[C@H](C(C)C)[C@H]2C(=O)O)NC(c2nccs2)=N[C@H]1c1ccc(F)cc1Cl [Example 120, (2R,3S)-4-[(R)-6-(2-Chloro-4-fluoro-phenyl)-5-methoxycarbonyl-2-thiazol-2-yl-3,6-dihydro-pyrimidin-4-ylmethyl]-2-isopropyl-morpholine-3-carboxylic acid] | 4.8 | 81 | 16875 | 2.58 |  |  |
| CCOC(=O)C1=C(CN2CCOC[C@H]2C(=O)O)NC(c2nccs2)=N[C@H]1c1ccc(F)cc1Br [Example 122, (S)-4-(((R)-6-(2-Bromo-4-fluorophenyl)-5-(ethoxycarbonyl)-2-(thiazol-2-yl)-3,6-dihydropyrimidin-4-yl)methyl)morpholine-3-carboxylic acid] | 1.3 |  | 55769 | 1.58 | > 722 | 73 |
| CCOC(=O)C1=C(CN2CCOC[C@H]2C(=O)O)NC(c2nccs2)=N[C@H]1c1ccc(Br)cc1 [Example 123, (3S)-4-[[(4S)-4-(4-Bromophenyl)-5-ethoxycarbonyl-2-(1,3-thiazol-2-yl)-1,4-dihydropyrimidin-6-yl]methyl]morpholine-3-carboxylic acid] | 2.8 |  | 19900 | 3.14 | > 666 | 56 |
| CCOC(=O)C1=C(CN2CCOC[C@H]2C(=O)O)NC(c2nccs2)=N[C@H]1c1ccccc1Br [Example 127, (S)-4-(((R)-6-(2-Bromophenyl)-5-(ethoxycarbonyl)-2-(thiazol-2-yl)-3,6-dihydropyrimidin-4-yl)methyl)morpholine-3 carboxylic acid] | 6.7 |  | >14925 | 2.44 | > 672 | > 100 |
| CCOC(=O)C1=C(CN2CC(F)(F)C[C@H]2C(=O)O)NC(c2nccs2)=N[C@H]1c1ccc(Br)cc1 [Example 130, (2S)-1-[[(4S)-4-(4-Bromophenyl)-5-ethoxycarbonyl-2-(1,3-thiazol-2-yl)-1,4-dihydropyrimidin-6-yl]methyl]-4,4-difluoropyrrolidine-2-carboxylic acid] | 6 |  | 2833 | 3.92 | > 625 | 17 |
